Results taken from article PMC10853515, “Identification of potential inhibitor against Leishmania donovani mitochondrial DNA primase through in-silico and in vitro drug repurposing approaches” (Scientific Reports, 2024).

Biological target: T1, mitochondrial DNA primase (LdmtPRI1) (Leishmania donovani, UniProt A0A3S7WXR7)
T1 construct: gene LdCL_230015100; recombinant histidine-tagged LdmtPRI1 (pET28a), purified from E. coli BL21
T1 sequence (A0A3S7WXR7 1-533): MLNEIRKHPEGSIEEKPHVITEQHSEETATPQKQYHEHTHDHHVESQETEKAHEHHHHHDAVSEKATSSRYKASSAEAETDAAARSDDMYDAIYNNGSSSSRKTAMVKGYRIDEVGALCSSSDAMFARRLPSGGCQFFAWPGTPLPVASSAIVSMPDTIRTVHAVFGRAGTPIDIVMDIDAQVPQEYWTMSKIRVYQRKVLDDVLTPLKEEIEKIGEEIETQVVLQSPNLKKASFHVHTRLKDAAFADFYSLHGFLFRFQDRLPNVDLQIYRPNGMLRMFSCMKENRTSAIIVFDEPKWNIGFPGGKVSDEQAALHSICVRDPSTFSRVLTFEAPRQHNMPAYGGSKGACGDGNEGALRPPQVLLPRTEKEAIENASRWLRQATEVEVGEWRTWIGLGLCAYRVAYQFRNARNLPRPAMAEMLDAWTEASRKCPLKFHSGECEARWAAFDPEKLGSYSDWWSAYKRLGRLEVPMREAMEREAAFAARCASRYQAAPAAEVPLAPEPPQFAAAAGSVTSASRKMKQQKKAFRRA
Assay: coupled primase-pyrophosphatase malachite green assay, purified enzyme
Format: biochemical

| Compound | IC50 [µM] |
| --- | --- |
| C/C(=C(\CCOP(=O)(O)O)SC(=O)c1ccccc1)N(C=O)Cc1cnc(C)nc1N [benfotiamine] | 0.02068 ± 3e-05 |
| CCCCCOC(=O)Nc1nc(=O)n([C@@H]2O[C@H](C)[C@@H](O)[C@H]2O)cc1F [capecitabine] | 0.01527 ± 3e-05 |
